In US8354436B2 (4SC Discovery GmbH, priority 2011, dated 2013):

Key:
Format in all cases: cell-based
IL-17FF = IL-17FF production by PHA-stimulated human PBMC (human IL-17F ELI-Pair); conditions: PHA-stimulated human PBMC, 48 hours; column B; read-out: IC50 (IL-17FF)
Procedure, shortened: (§1)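 Healthy-donor PBMC (1×10^5 cells/well) activated with 2 μg/ml PHA and incubated with compounds for 48 h. Supernatant IL-17AA/AF read by Luminex BioPlex, IL-17AA, IL-17FF and IFN-γ by ELISA. Screening at 10, 1, 0.1 and 0.01 μM; IC50 from semilogarithmic titrations.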

IFN-γ = IFN-γ production by PHA-stimulated human PBMC (OptEIA human IFN-g ELISA); conditions: PHA-stimulated human PBMC, 48 hours; column C; read-out: IC50 (IFNγ)
Procedure, shortened: as §1

[1] = system: PBMC from healthy human donors; assay: T cell proliferation assay (PHA-stimulated human PBMC, BrdU ELISA); conditions: PHA-stimulated human PBMC, 48 hours, column D, read-out: IC50 (Tcell proliferation)
Procedure, shortened: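 Healthy-donor PBMC isolated on Ficoll, seeded at 1×10⁵ cells/well in RPMI with 10% dialysed FCS, stimulated with 2 μg/ml PHA in presence of test compound. Proliferation read after 48 hours by BrdU-incorporation ELISA.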

IC50 (IL-17FF) [µM] | IC50 (IFN-γ) [µM] | Compound | IC50 [1] [µM]
0.1 to 1 | 0.1 to 1 | Nc1c(-c2c(F)cccc2Cl)noc1-c1cnn(-c2cccc(Cl)c2)c1C(F)(F)F [IB-36, 3-(2-chloro-6-fluorophenyl)-5-(1-(3-chlorophenyl)-5-(trifluoromethyl)-1H-pyrazol-4-yl)isoxazol-4-amine] | 0.1 to 1
< 0.01 | < 0.01 | CCOC(=O)c1c(-c2c(F)cccc2Cl)noc1-c1cnn(-c2ccncc2)c1C(F)(F)F [IB-38, ethyl 3-(2-chloro-6-fluorophenyl)-5-(1-(pyridin-4-yl)-5-(trifluoromethyl)-1H-pyrazol-4-yl)-isoxazole-4-carboxylate] | < 0.01
< 0.01 | < 0.01 | CCOC(=O)c1c(-c2ccccc2Cl)noc1-c1cnn(-c2cccc(Cl)c2)c1C(F)(F)F [IB-41, ethyl 3-(2-chlorophenyl)-5-(1-(3-chlorophenyl)-5-(trifluoromethyl)-1H-pyrazol-4-yl)-isoxazole-4-carboxylate] | 0.01 to 0.1
< 0.01 | < 0.01 | CCOC(=O)c1c(-c2c(Cl)cccc2Cl)noc1-c1cnn(-c2cccc(Cl)c2)c1C(F)(F)F [IB-45, ethyl 5-(1-(3-chlorophenyl)-5-(trifluoromethyl)-1H-pyrazol-4-yl)-3-(2,6-dichlorophenyl)-isoxazole-4-carboxylate] | < 0.01
0.01 to 0.1 | 0.01 to 0.1 | CCOC(=O)c1c(-c2ccccc2F)noc1-c1cnn(-c2cccc(Cl)c2)c1C(F)(F)F [IB-47, ethyl 5-(1-(3-chlorophenyl)-5-(trifluoromethyl)-1H-pyrazol-4-yl)-3-(2-fluorophenyl)isoxazole-4-carboxylate] | 0.01 to 0.1
1 to 10 | 1 to 10 | CON(C)C(=O)c1c(-c2c(F)cccc2Cl)noc1-c1cnn(-c2ccccc2Cl)c1C(F)(F)F [IB-51, 3-(2-chloro-6-fluorophenyl)-5-(1-(2-chlorophenyl)-5-(trifluoromethyl)-1H-pyrazol-4-yl)-N-methoxy-N-methylisoxazole-4-carboxamide] | 1 to 10
1 to 10 | 1 to 10 | CON(C)C(=O)c1c(-c2c(F)cccc2Cl)noc1-c1cnn(-c2cccnc2)c1C(F)(F)F [IB-56, 3-(2-chloro-6-fluorophenyl)-N-methoxy-N-methyl-5-(1-(pyridin-3-yl)-5-(trifluoromethyl)-1H-pyrazol-4-yl)isoxazole-4-carboxamide] | 1 to 10
1 to 10 | 1 to 10 | O=C(c1c(-c2c(F)cccc2Cl)noc1-c1cnn(-c2ccncc2)c1C(F)(F)F)N1CCCO1 [IB-57, (3-(2-chloro-6-fluorophenyl)-5-(1-(pyridin-4-yl)-5-(trifluoromethyl)-1H-pyrazol-4-yl)isoxazol-4-yl)(isoxazolidin-2-yl)methanone] | 1 to 10
1 to 10 | 1 to 10 | CON(C)C(=O)c1c(-c2c(F)cccc2Cl)noc1-c1cnn(-c2ccncc2)c1C(F)(F)F [IB-59, 3-(2-chloro-6-fluorophenyl)-N-methoxy-N-methyl-5-(1-(pyridin-4-yl)-5-(trifluoromethyl)-1H-pyrazol-4-yl)isoxazole-4-carboxamide] | 1 to 10
0.01 to 0.1 | 0.01 to 0.1 | COC(=O)c1c(-c2c(F)cccc2Cl)noc1-c1cnn(-c2cccnc2)c1C(F)(F)F [IB-67, methyl 3-(2-chloro-6-fluorophenyl)-5-(1-(pyridin-3-yl)-5-(trifluoromethyl)-1H-pyrazol-4-yl)isoxazole-4-carboxylate] | 0.01 to 0.1

The next lines start with the molecule.

Compound | IC50 (IL-17FF) [µM] | IC50 (IFN-γ) [µM] | IC50 [1] [µM]
CCOC(=O)c1c(-c2c(F)cccc2Cl)noc1-c1cnn(-c2cccnc2)c1C(F)(F)F [IB-37, ethyl 3-(2-chloro-6-fluorophenyl)-5-(1-(pyridin-3-yl)-5-(trifluoromethyl)-1H-pyrazol-4-yl)-isoxazole-4-carboxylate] | < 0.01 | < 0.01 | < 0.01
O=C(O)c1c(-c2ccccc2Cl)noc1-c1cnn(-c2cccc(Cl)c2)c1C(F)(F)F [IB-42, 3-(2-chlorophenyl)-5-(1-(3-chlorophenyl)-5-(trifluoromethyl)-1H-pyrazol-4-yl)-isoxazole-4-carboxylic acid] | 1 to 10 | 1 to 10 | 1 to 10
CCOC(=O)c1c(-c2c(F)cccc2Cl)noc1-c1cnn(-c2cccc(S(N)(=O)=O)c2)c1C(F)(F)F [IB-43, ethyl 3-(2-chloro-6-fluorophenyl)-5-(1-(3-sulfamoylphenyl)-5-(trifluoromethyl)-1H-pyrazol-4-yl)-isoxazole-4-carboxylate] | 0.1 to 1 | 1 to 10 | 1 to 10
CCOC(=O)c1c(-c2c(F)cccc2Cl)noc1-c1cnn(-c2ccccc2C#N)c1C(F)(F)F [IB-44, ethyl 3-(2-chloro-6-fluorophenyl)-5-(1-(2-cyanophenyl)-5-(trifluoromethyl)-1H-pyrazol-4-yl)-isoxazole-4-carboxylate] | 1 to 10 | 1 to 10 | 1 to 10
CCOC(=O)c1c(-c2ccc(Cl)cc2Cl)noc1-c1cnn(-c2cccc(Cl)c2)c1C(F)(F)F [IB-46, ethyl 5-(1-(3-chlorophenyl)-5-(trifluoromethyl)-1H-pyrazol-4-yl)-3-(2,4-dichlorophenyl)-isoxazole-4-carboxylate] | 0.1 to 1 | 0.1 to 1 | 0.1 to 1
O=C(c1c(-c2c(F)cccc2Cl)noc1-c1cnn(-c2ccccc2Cl)c1C(F)(F)F)N1CCCO1 [IB-49, (3-(2-chloro-6-fluorophenyl)-5-(1-(2-chlorophenyl)-5-(trifluoromethyl)-1H-pyrazol-4-yl)isoxazol-4-yl)(isoxazolidin-2-yl)methanone] | 0.1 to 1 | 1 to 10 | 1 to 10
O=C(c1c(-c2c(F)cccc2Cl)noc1-c1cnn(-c2ccccc2F)c1C(F)(F)F)N1CCCO1 [IB-52, (3-(2-chloro-6-fluorophenyl)-5-(1-(2-fluorophenyl)-5-(trifluoromethyl)-1H-pyrazol-4-yl)isoxazol-4-yl)(isoxazolidin-2-yl)methanone] | 1 to 10 | 1 to 10 | 1 to 10
CON(C)C(=O)c1c(-c2c(F)cccc2Cl)noc1-c1cnn(-c2ccccc2F)c1C(F)(F)F [IB-53, 3-(2-chloro-6-fluorophenyl)-5-(1-(2-fluorophenyl)-5-(trifluoromethyl)-1H-pyrazol-4-yl)-N-methoxy-N-methylisoxazole-4-carboxamide] | 0.1 to 1 | 0.1 to 1 | 0.1 to 1
O=C(c1c(-c2c(F)cccc2Cl)noc1-c1cnn(-c2cccnc2)c1C(F)(F)F)N1CCCO1 [IB-54, (3-(2-chloro-6-fluorophenyl)-5-(1-(pyridin-3-yl)-5-(trifluoromethyl)-1H-pyrazol-4-yl)isoxazol-4-yl)(isoxazolidin-2-yl)methanone] | 1 to 10 | 1 to 10 | 1 to 10
CNC(=O)c1c(-c2c(F)cccc2Cl)noc1-c1cnn(-c2cccnc2)c1C(F)(F)F [IB-55, 3-(2-chloro-6-fluorophenyl)-N-methyl-5-(1-(pyridin-3-yl)-5-(trifluoromethyl)-1H-pyrazol-4-yl)isoxazole-4-carboxamide] | 1 to 10 | 1 to 10 | 1 to 10
CC(C)OC(=O)c1c(-c2c(F)cccc2Cl)noc1-c1cnn(-c2ccccc2Cl)c1C(F)(F)F [IB-60] | 1 to 10 | 1 to 10 | 1 to 10
CC(C)OC(=O)c1c(-c2c(F)cccc2Cl)noc1-c1cnn(-c2cccnc2)c1C(F)(F)F [IB-61, isopropyl 3-(2-chloro-6-fluorophenyl)-5-(1-(pyridin-3-yl)-5-(trifluoromethyl)-1H-pyrazol-4-yl)isoxazole-4-carboxylate] | 0.01 to 0.1 | < 0.01 | 0.01 to 0.1
O=C(c1c(-c2ccccc2Cl)noc1-c1cnn(-c2cccc(Cl)c2)c1C(F)(F)F)N1CCCO1 [IB-62, (3-(2-chlorophenyl)-5-(1-(3-chlorophenyl)-5-(trifluoromethyl)-1H-pyrazol-4-yl)isoxazol-4-yl)(isoxazolidin-2-yl)methanone] | 0.01 to 0.1 | 0.01 to 0.1 | 0.01 to 0.1
CNC(=O)c1c(-c2ccccc2Cl)noc1-c1cnn(-c2cccc(Cl)c2)c1C(F)(F)F [IB-63, 3-(2-chlorophenyl)-5-(1-(3-chlorophenyl)-5-(trifluoromethyl)-1H-pyrazol-4-yl)-N-methylisoxazole-4-carboxamide] | 0.1 to 1 | 0.1 to 1 | 0.1 to 1
CON(C)C(=O)c1c(-c2ccccc2Cl)noc1-c1cnn(-c2cccc(Cl)c2)c1C(F)(F)F [IB-64, 3-(2-chlorophenyl)-5-(1-(3-chlorophenyl)-5-(trifluoromethyl)-1H-pyrazol-4-yl)-N-methoxy-N-methylisoxazole-4-carboxamide] | 0.01 to 0.1 | 0.1 to 1 | 0.1 to 1
CSC(=O)c1c(-c2c(F)cccc2Cl)noc1-c1cnn(-c2cccnc2)c1C(F)(F)F [IB-68, S-methyl 3-(2-chloro-6-fluorophenyl)-5-(1-(pyridin-3-yl)-5-(trifluoromethyl)-1H-pyrazol-4-yl)isoxazole-4-carbothioate] | < 0.01 | < 0.01 | 0.01 to 0.1
COC(=O)c1c(-c2c(F)cccc2Cl)noc1-c1cnn(-c2ccncc2)c1C(F)(F)F [IB-69, methyl 3-(2-chloro-6-fluorophenyl)-5-(1-(pyridin-4-yl)-5-(trifluoromethyl)-1H-pyrazol-4-yl)isoxazole-4-carboxylate] | 0.01 to 0.1 | 0.01 to 0.1 | 0.01 to 0.1
